The values below come from paper PMC9784924, “Antiviral Activity and Crystal Structures of HIV-1 gp120 Antagonists” (International Journal of Molecular Sciences, 2022).

Like-named read-outs stand apart in the source and are kept apart here.

For the test, the target named is T1, HIV-1 reverse transcriptase (RT) (HIV-1 M:B_HXB2R, UniProt P04585).
T1 construct: gene gag-pol; enzyme of the Colorimetric Reverse Transcriptase Assay kit (Roche); cut from the Gag-Pol polyprotein; with p51 RT
The format is biochemical. Conditions: n = 2. An excerpt: Colorimetric Reverse Transcriptase Assay (Roche) on HIV-1 reverse transcriptase (RT)

Compound `CC1(C)CC(NC(=O)C(=O)Nc2ccc(Cl)cc2)CC(C)(C)N1` [NBD-556, reference compound] displayed an IC50 (control) greater than 300 µM.

Compound `NC[C@H](NC(=O)c1ccc(-c2ccc(C(F)(F)F)cn2)[nH]1)c1ncc(CO)s1` [NBD-14204] displayed an IC50 of 8.3 ± 1.2 µM.

On to `NC[C@H](NC(=O)c1ccc(-c2cc(F)c(Cl)c(F)c2)[nH]1)c1nc(CO)c(CO)s1` [NBD-14208], for which the IC50 worked out at 5 ± 0.5 µM. Against the preceding compound, the IC50 is about 1.7-fold lower.
